The text below walks through data of ChEMBL document CHEMBL1157539, “Thousands of chemical starting points for antimalarial lead identification” (Nature, 2010).

The assay deals with Plasmodium falciparum. Nature of the assay: GSK_TCMDC: Inhibition of Plasmodium falciparum 3D7 in whole erythrocytes, using parasite LDH activity as an index of growth. It is filed as functional, organism-based. Conditions: Plasmodium falciparum, 3D7.

Turning to `c1ccc2c(c1)cc(CNCCCN1CCN(CCCNCc3cc4ccccc4c4ccccc34)CC1)c1ccccc12`, the XC50 came out at 0.204 µM. The figure for `COc1ccc(CCNCCCCCCNCCc2ccc(OC)c(OC)c2Cl)c(Cl)c1OC` is 0.904 µM; for `Cc1[nH]c2ccc(-c3ccccc3)cc2c(=O)c1Br` it is 0.162 µM.

For the molecule `COc1cccc(-n2ncc3c(N/N=C/c4ccc(CN(C)CCN(C)C)cc4)ncnc32)c1`, the XC50 worked out at 0.893 µM. In the case of `NOCCCOc1ccccc1` it was 0.321 µM; in that of `Cn1cncc1C(=O)Nc1cccc(-c2csc(-c3nc4ccccc4[nH]3)c2)c1`, 0.447 µM; in that of `CCc1cccc(C)c1-n1nc(-c2cc(C(C)(C)C)oc2C)cc1N`, 0.658 µM.

In the case of `O=C(/C=C/c1ccc(I)cc1)NCCCCCN1CCC(c2c[nH]c3ccccc23)CC1`, the XC50 is 0.836 µM. In the case of `CCC(C)c1ccc(-n2c(Nc3ccccc3)nc3cc(S(N)(=O)=O)ccc32)cc1` (configuration not stated) it was 1.06 µM. In the case of `CCNc1cc(C(=O)N[C@@H](Cc2ccccc2)[C@H](O)CNCCc2cccc(C(F)(F)F)c2)cc(N2CCCC2=O)c1` it was 0.879 µM.

Consider `Nc1nc(N)c2c(Sc3ccccc3)cccc2n1`, for which the XC50 is 0.645 µM. The figure for `COCCN(C)c1ccc(C(=O)Nc2ccccc2)cc1NS(=O)(=O)Cc1ccccc1` is 0.571 µM. The figure for `CCc1c[nH]c2c(N3CCCCS3(=O)=O)cc(C(=O)N[C@@H](Cc3ccccc3)[C@H](O)CNCc3cccc(OC)c3)cc12` is 0.909 µM; for `O=C(/C=C/c1ccc(Cl)c(Cl)c1)NCCCCCN1CCC(NC(=O)c2cccc(Cl)c2)CC1` it is 0.687 µM; for `Nc1nc2c(ncn2COC(COCc2ccccc2)COCc2ccccc2)c(=O)[nH]1.Nc1nc2ncn(COC(COCc3ccccc3)COCc3ccccc3)c2c(=O)[nH]1` it is 0.714 µM. `Cc1[nH]c2ccccc2c1C1=CCN(CCCCC23CCCc4cccc(c42)NC3=O)CC1` (configuration not stated) returned an XC50 of 0.231 µM. In the case of `NC(=O)c1ccc(C(=O)Nc2cccc(-c3ccc(-c4nc5cc(C(F)(F)F)ccc5[nH]4)cc3)c2)cc1` it was 0.514 µM; in that of `CC1(C)NC(N)=NC(=N)N1OCCCOc1ccc([N+](=O)[O-])cc1`, 0.0032 µM; in that of `CCCCCC(C)C(C)c1cc(O)c2c(c1)OC(C)(C)CC2(O)c1ccccn1` (configuration not stated), 0.741 µM. The figure for `COc1cccc2cc(C(=O)N[C@@H](CC(C)C)C(=O)N[C@H](C=NN3CC(=O)NC3=O)CC(C)C)oc12` is 0.92 µM; for `O=C(Nc1cccc(CN2CCCN(Cc3ccc(O)cc3)CC2)c1)c1ccc(Br)cc1` it is 0.8 µM. In the case of `COCC(C)n1c(SCC(=O)Nc2cc(C(F)(F)F)ccc2Cl)nc2ccccc2c1=O` (configuration not stated) it was 0.13 µM; in that of `CNC(=O)COc1ccc(Nc2nnc(-c3ccc(C)c(S(=O)(=O)NCC4CCCO4)c3)c3ccccc23)cc1` (configuration not stated), 0.933 µM; in that of `Fc1ccc2[nH]c(-c3ccc(-c4ccc(CNCC5CCCO5)cc4)cc3)nc2c1` (configuration not stated), 0.44 µM. `NC1=NC(c2ccccc2)(c2ccccc2)C(=O)N1CCCCc1ccccn1` had an XC50 of 1.26 µM. In the case of `CCOc1ccc2[nH]c(C)cc(=NN=Cc3cccnc3)c2c1` it was 0.155 µM; in that of `COc1ccc(NC(=O)[C@H](CC(C)C)Nc2ccnc(Nc3ccccc3)n2)cc1`, 1.57 µM. `O=C(Cn1c(CCc2cccc(F)c2F)nc(=O)c2ccccc21)N(Cc1ccc(-c2ccc(C(F)(F)F)cc2)cc1)C1CCN(C2=NCCS2)CC1` showed an XC50 of 1.33 µM. The figure for `COc1ccc(Nc2ncc(Cl)c(Nc3cccnc3C(N)=O)n2)cc1N1CCN(C)CC1` is 0.225 µM; for `COC(=O)/C=C/C(=O)N[C@@H]1CC[C@@]2(O)[C@H]3Cc4ccc(O)c5c4[C@@]2(CCN3CC2CC2)[C@H]1O5` it is 0.639 µM; for `CCCCn1c(-c2ccco2)nc2c(c(=O)c3ccccc3n2C)c1=O` it is 1.24 µM. In the case of `c1cncc(Oc2ccc(Nc3ccnc4cc(-c5cccc(CN6CCOCC6)c5)ccc34)cc2)c1` it was 0.305 µM; in that of `O=S(=O)(NCCN1CCCC1)c1ccc(-c2cccc(CNC3Cc4ccccc4C3)c2)cc1F`, 1.02 µM; in that of `CCCCCCCc1c(C)nc2c(OC)cccc2c1O`, 0.921 µM. `Cc1cccc2nc(-c3ccc(-c4cccc(CNCC5CCCO5)c4)s3)[nH]c12` (configuration not stated): the XC50 worked out at 0.972 µM. The figure for `COc1cccc(CN2Cc3ccccc3OC3(CCN(Cc4c[nH]c5cnccc45)CC3)C2)c1` is 1.3 µM. The figure for `COc1ccc(F)cc1-c1ccccc1CNC(=O)CN(C)S(=O)(=O)c1cc(C)cc(Cl)c1C` is 0.665 µM; for `CCCOc1ccc(C(=O)Nc2nonc2-c2ccc(OC)c(OC)c2)cc1` it is 0.991 µM; for `COc1ccc2c(=NN=Cc3cccc(F)c3)cc(C)[nH]c2c1` it is 0.777 µM. Consider `CS(=O)(=O)c1ccccc1CNC(=O)c1cccc(-c2ccc(-c3nc4cc(C(F)(F)F)ccc4[nH]3)cc2)c1`, for which the XC50 was 0.809 µM. Regarding `Cc1cc(S(=O)(=O)N2CCCCC(c3ccc(C(F)(F)F)cc3)=N2)c(Cl)cc1Cl`, the XC50 worked out at 0.504 µM. In the case of `O=C(NCCN1CCOCC1)c1ccc(-c2ccc(CNCCCc3ccccc3)cc2)nc1` it was 0.782 µM; in that of `CN(C)CCCOc1ccc(-c2csc(NC(=N)NCc3ccccc3)n2)cc1`, 0.278 µM; in that of `Cc1noc(C)c1-c1cccc(CNCc2ccc(-c3ccc(-c4nc5cc(C(F)(F)F)ccc5[nH]4)s3)cc2)c1`, 0.181 µM. In the case of `O=C(NCc1cccc(F)c1)Nc1cccc(-c2cccc(-c3nc4cc(C(F)(F)F)ccc4[nH]3)c2)c1` it was 0.33 µM; in that of `Cc1ccc(CN2CCCN(Cc3cccc(NC(=O)c4cc5ccccc5s4)c3)CC2)cc1`, 1.19 µM. In the case of `CCc1c[nH]c2c(N3CCCC3=O)cc(C(=O)N[C@@H](Cc3ccccc3)[C@H](O)CNC(C)(C)CCCC(C)C)cc12` it was 0.511 µM; in that of `COc1cc(NC2=C(c3ccccc3)C(=O)c3ccccc32)ccn1`, 0.359 µM.

For `N=C(N)NC(=O)Nc1ccc(Cl)c(C(F)(F)F)c1`, the XC50 was 0.594 µM. In the case of `N#Cc1cccc(CN2CCCN(Cc3cccc(C(=O)Nc4ccc(Cl)cc4)c3)CC2)c1` it was 1.18 µM; in that of `Fc1ccc2[nH]c(-c3ccc(-c4cccc(CN5CCN(CCN6CCOCC6)CC5)c4)cc3)nc2c1`, 0.145 µM; in that of `COc1ccccc1NC(=O)OC(COc1ccc(N)cc1)CN1CC=C(c2ccccc2)CC1` (configuration not stated), 1.04 µM.

As for `CCC(C)(C)NC(=O)C(c1cccc(OC)c1)N(C(=O)CNC(=O)c1cccs1)c1ccc2c(c1)OCCO2` (configuration not stated), the XC50 is 0.828 µM. The figure for `CCCN(CC)CCOC(=O)c1ccccc1` is 0.739 µM. `COc1ccc(-c2ccc(NC(=O)c3cccc(C#N)c3)cc2)cc1CN(C)C`: the XC50 amounted to 0.735 µM. In the case of `Cc1cc(O)nc(NC(=N)NOCCCc2ccccc2)n1` it was 0.76 µM; in that of `CN1Cc2ccc(NS(=O)(=O)c3ccc(-c4ccoc4)cc3)cc2C1`, 0.16 µM; in that of `Cc1cc(C(F)(F)F)cc(-n2ncc(-c3ccc(C(=O)NCCNCc4ccccc4)cc3)c2N)n1`, 1.07 µM. For the molecule `CN(C)CCCOc1cccc(NC(=O)Nc2ccc(Cl)c(Cl)c2)c1`, the XC50 was found to be 0.956 µM. The figure for `COc1ccc2nc3cc(Cl)ccc3c(Nc3ccc(Sc4ccc(Nc5c6ccc(Cl)cc6nc6ccc(OC)cc56)cc4)cc3)c2c1` is 0.199 µM; for `Cc1cccc(CNc2nc(C)cc(N[C@@H](CC(C)C)C(=O)NCCOc3ccccc3)n2)c1` it is 1.08 µM; for `Nc1[nH]c2ccccc2c(=O)c1-c1nc2ccccc2s1` it is 0.303 µM.
